In brackets after ≈: the same amount, converted by molar mass. Where a name gives a salt, the structure may show the parent alone.
Experiments:
[1] = tested on: Herpes simplex type 1 virus, strain SC16; experiment: Virus cytopathic effect (CPE) reduction, Herpes simplex type 1 virus strain SC16 in MRC-5 cells (Method 2); type: cell-based; settings: 50% reduction of virus CPE, 3 days at 37° C.; for IC50: Human alphaherpesvirus 1, SC16, MRC5, 72 h, read-out: PDD50 Herpes simplex type 1 virus SC16 strain in MRC-5 cells
Description: (§1) MRC-5 cells were infected in suspension with Herpes simplex type 1 virus, strain SC16. The infected cell suspension was dispensed (0.1 ml) in 96 well microtitre plates containing the test drugs in maintenance medium in concentrations ranging from 100 to 0.03 μg/ml in half-log dilution steps (0.1 ml per well). The plates were then icubated at 37° C. for 3 days when the virus cytopathic effect (CPE) in the control wells reached 100%. The plates were fixed in 4% formaldehyde solution and stained with carbol fuchsin. […] Plates using uninfected cells were run in parallel to determine the minimum concentration of test compound which caused cytotoxicity (MTD).

[2] = tested on: Herpes simplex type 1 virus (HFEM strain); experiment: Plaque reduction, Herpes simplex type 1 virus (HFEM strain) in Vero cells (Method 1); type: cell-based; settings: 50% reduction in number of virus plaques, 4 days at 37° C.; for IC50: Human alphaherpesvirus 1, Vero, 96 h, read-out: PDD50 Herpes simplex type 1 virus HFEM strain in Vero cells
Description: (§2) Vero (Arican Green Monkey Kidney) cells were grown to confluence in 24 well multidishes, each well being 1.6 cm in diameter. The cells were infected with Herpes simplex type 1 virus (HFEM strain) and overlaid with 0.5 ml of 0.9% agarose (w/v) in maintenance medium. The test compound, prepared in maintenance medium in concentrations ranging from 100 to 0.3 μg/ml in half-log dilution steps, was added in 0.5 ml volume. The virus infected cultures were then incubated at 37° C. for 4 days before fixing in 4% formaldehyde solution and staining with carbol fuchsin.

[3] = tested on: Herpes simplex type 2 virus (MS strain); experiment: Plaque reduction, Herpes simplex type 2 virus (MS strain) in Vero cells (Method 1); type: cell-based; settings: Human alphaherpesvirus 2, Method 1, plaque reduction, read-out: PDD50 Herpes simplex type 2 virus MS strain in Vero cells
Description: as §2
(§3) Compounds were also tested against Herpes simplex type 2 virus (MS strain) in Vero cells using Method 1 and in MRC-5 cells using Method 2. In the latter test, the incubation time was reduced to 24 hours.

[4] = tested on: Herpes simplex type 2 virus (MS strain); experiment: Virus CPE reduction, Herpes simplex type 2 virus (MS strain) in MRC-5 cells (Method 2, 24 hours incubation); type: cell-based; settings: Human alphaherpesvirus 2, MRC5, Method 2, CPE reduction, incubation 24 hours, read-out: PDD50 Herpes simplex type 2 virus MS strain in MRC-5 cells
Description: as §1, §3

[5] = Blood concentration of 9-(4-hydroxy-3-hydroxymethylbut-1-yl)guanine in mice after oral administration of derivatives (Method 3); type: in vivo; settings: female Balb/C mice, oral gavage 0.2 mmoles/kg of administered compound, blood 15 minutes later, pooled from three mice; analyte 9-(4-hydroxy-3-hydroxymethylbut-1-yl)guanine
Description: Compounds were administered by oral gavage (0.2 mmoles/kg in 0.1 ml of 1% carboxymethyl cellulose) to 20 g female Balb/C mice which had been starved for 18 hours. Fifteen minutes later, blood was collected from three mice by cardiac puncture using heparinised syringes. Equal aliquots were pooled and an equal volume of 16% trichloroacetic acid added. Following centrifugation (8,500 g) to remove precipitated proteins, the resulting mixture was analysed by high performance liquid chromatography using a C18 Nova-Pak cartridge eluted with Buffer A (50 mM NaH2PO4, pH4.6) and Buffer B (10% Buffer A, 10% water, 80% methanol) in a gradient from 1% to 95% Buffer B. 9-(4-Hydroxy-3-hydroxymethylbut-1-yl)guanine was assayed with a Pye-Unicam PU4021 u.v. detector set at 254 nm.

SMILES | melting point [°C] | IC50 [1] [µg/mL] | IC50 [2] [µg/mL] | IC50 [3] [µg/mL] | IC50 [4] [µg/mL] | further results
Nc1nc2c(ncn2CCC(CO)COC(=O)c2ccccc2)c(=O)[nH]1 (stereo not shown) [Example 32, 9-(4-Benzoyloxy-3-hydroxymethylbut-1-yl)guanine] | 156 to 168 | 3 (≈ 8.39 µM) | 95 (≈ 266 µM) |  |  | 
CC(=O)OCC(CCn1cnc2c(=O)[nH]c(N)nc21)COC(C)=O [Example 22, 9-(4-Acetoxy-3-acetoxymethylbut-1-yl)guanine] | 202 to 205 | > 100 | > 100 | > 100 | 83 (≈ 246 µM) | 
CCOc1nc(N)nc2c1ncn2CCC(CO)CO [Example 16, 2-Amino-6-ethoxy-9-(4-hydroxy-3-hydroxymethylbut-1-yl)purine] | 150 to 152 |  |  |  |  | 
CCCCCC(=O)OCC(CO)CCn1cnc2c(=O)[nH]c(N)nc21 (stereo not shown) [Example 33, 9-(4-Hexanoyloxy-3-hydroxymethylbut-1-yl)guanine] | 179 to 181 |  |  |  |  | 
Nc1nc2c(ncn2CCC(CO)CO)c(=O)[nH]1.[Na] [Example 12, 9-(4-Hydroxy-3-hydroxymethylbut-1-yl)guanine, Sodium Salt] |  | 0.7 | 2.2 |  |  | 
Nc1nc(N)c2ncn(CCC(CO)CO)c2n1 [Example 21, 2,6-Diamino-9-(4-hydroxy-3-hydroxymethylbut-1-yl)purine] | 187 to 190 |  |  |  |  | 
CC(=O)OCC(CO)CCn1cnc2c(=O)[nH]c(N)nc21 (stereo not shown) [Example 31, 9-(4-Acetoxy-3-hydroxymethylbut-1-yl)guanine] | 194 to 200 | 10 (≈ 33.9 µM) | 24 (≈ 81.3 µM) |  |  | 
Nc1nc(Oc2ccccc2)c2ncn(CCC(CO)CO)c2n1 [Example 39, 2-Amino-9-(4-hydroxy-3-hydroxymethylbut-1-yl)-6-phenoxypurine] | 173 to 175 |  |  |  |  | 
CC(C)(C)C(=O)OCC(CCn1cnc2c(=O)[nH]c(N)nc21)COC(=O)C(C)(C)C [Example 30, 9-(4-Pivalyloxy-3-pivalyloxymethylbut-1-yl)guanine] | 225 to 237 |  |  |  |  | 
Nc1nc2c(ncn2CCC(COC(=O)n2ccnc2)COC(=O)n2ccnc2)c(=O)[nH]1 [Example 27, 9-[4-(N-Imidazolylcarbonyloxy)-3-(N-imidazolylcarbonyloxymethyl)-but-1-yl]guanine] |  | 1.5 (≈ 3.4 µM) | 13 (≈ 29.5 µM) | 2.8 (≈ 6.34 µM) | 5.7 (≈ 12.9 µM) | 
Nc1nc2c(ncn2CCC(COC=O)COC=O)c(=O)[nH]1 [Example 26, 9-(4-Formyloxy-3-formyloxymethylbut-1-yl)guanine] | 195 to 198 |  |  |  |  | 
CCCCCCCCCCCCCCCC(=O)OCC(CO)CCn1cnc2c(=O)[nH]c(N)nc21 (stereo not shown) [Example 34, 9-(4-Hexadecanoyloxy-3-hydroxymethylbut-1-yl)guanine] | 183 to 191 | 2 (≈ 4.07 µM) | 16 (≈ 32.5 µM) |  |  | 
CC(C)Oc1nc(N)nc2c1ncn2CCC(CO)CO [Example 38, 2-Amino-9-(4-hydroxy-3-hydroxymethylbut-1-yl)-6-isopropoxypurine] | 111.5 to 113.5 |  |  |  |  | 
N.N.Nc1nc2c(ncn2CCC(CO)COP(=O)(O)O)c(=O)[nH]1 (stereo not shown) [Example 35, 9-(4-Hydroxy-3-hydroxymethylbut-1-yl)guanine 4′-Phosphate Diammonium Salt] |  |  |  |  |  | Concentration of Example 4 in Blood [5]: 1.1 µg/mL
Nc1nc2c(ncn2CCC(CO)CO)c(=O)[nH]1 [Example 4, 9-(4-Hydroxy-3-hydroxymethylbut-1-yl)guanine] |  | 0.9 (≈ 3.55 µM) | 1.3 (≈ 5.13 µM) | 2.3 (≈ 9.08 µM) | 0.6 (≈ 2.37 µM) | 
CCCCCC(=O)OCC(CCn1cnc2c(=O)[nH]c(N)nc21)COC(=O)CCCCC [Example 25, 9-(4-Hexanoyloxy-3-hexanoyloxymethylbut-1-yl)guanine] | 198.5 to 201 | 1 (≈ 2.22 µM) | 1.9 (≈ 4.23 µM) | 1.6 (≈ 3.56 µM) | 0.9 (≈ 2 µM) | 
CCCCCC(=O)Nc1nc2c(ncn2CCC(CO)CO)c(=O)[nH]1 [Example 37, N^2-Hexanoyl-9-(4-hydroxy-3-hydroxymethylbut-1-yl)guanine] | 86 to 88 |  |  |  |  | 
CCC(=O)Nc1nc2c(ncn2CCC(COC(=O)CC)COC(=O)CC)c(=O)[nH]1 [Example 24, N^2-Propionyl-9-(4-propionyloxy-3-propionyloxymethyl-but-1-yl)guanine] |  | > 100 | > 100 | > 100 | 65 (≈ 154 µM) | 
CC(=O)Nc1nc2c(ncn2CCC(CO)CO)c(=O)[nH]1 [Example 36, N^2-Acetyl-9-(4-hydroxy-3-hydroxymethylbut-1-yl)guanine] | 143 to 146 |  |  |  |  | 
Nc1nc2c(ncn2CCC(CO)CO)c(=O)[nH]1 [Example 13, 9-(4-Hydroxy-3-hydroxymethylbut-1-yl)guanine, Potassium Salt] |  |  |  |  |  | PDD50 Herpes simplex type 1 virus SC16 strain in MRC-5 cells ([1]; Potassium Salt): 0.7 µg/mL; PDD50 Herpes simplex type 1 virus HFEM strain in Vero cells ([2]; Potassium Salt): 1.7 µg/mL
COc1nc(N)nc2c1ncn2CCC(CO)CO [Example 15, 2-Amino-9-(4-hydroxy-3-hydroxymethylbut-1-yl)-6-methoxypurine] | 117 to 119 | > 100 | > 100 | 63 (≈ 236 µM) | 49 (≈ 183 µM) | 
Nc1nc(OCc2ccccc2)c2ncn(CCC(CO)CO)c2n1 [Example 17, 2-Amino-6-benzyloxy-9-(4-hydroxy-3-hydroxymethylbut-1-yl)purine] | 146 to 147.5 |  |  |  |  | 
CCC(=O)OCC(CCn1cnc2c(=O)[nH]c(N)nc21)COC(=O)CC [Example 23, 9-(4-Propionyloxy-3-propionyloxymethylbut-1-yl)guanine] |  | 25 (≈ 68.4 µM) | > 100 | > 100 | 85 (≈ 233 µM) | 

Reference: patent US6573378B1, “Antiviral guanine derivatives” (Novartis International Pharmaceutical Ltd., priority 1983, dated 2003)
